Assay results: patent US20080207632A1, “PROTEIN KINASE INHIBITORS” (SUPERGEN, INC., priority 2006, published 2008)
Like-named read-outs stand apart in the source and are kept apart here.

Columns and labels:
Format in all cases: cell-based
Panc-1 (pancreas) = test: in vitro cytotoxicity assay (Cell-Titer-Glo), Panc-1; details: Homo sapiens
Procedure: (§1) To evaluate cell killing of cancer cell lines, an in vitro cytotoxicity assay was performed. The tumor cell lines used were purchased from the American Type Culture Collection, and are identified as follows: Panc-1 (pancreas), MiaPaCa-2 (pancreas), MCF-7 (breast), HT-29 (colon), U2-OS (osteosarcoma), OVCAR-3 (ovary), HepG2 (hepatocellular carcinoma) and TT (medullary thyroid). The assay utilized the Cell-Titer-Glo Non-Radioactive Cell Proliferation Assay (Promega Corp., Madison, Wis.). First the cells were cultured in RPMI 1640 medium (Cat# 21870-076, Invitrogen Corporation) supplemented with 300 mg/L L-glutamine, 100 units/ml penicillin, 100 μg/ml streptomycin and 10% fetal bovine serum. All the cell lines were incubated in a humidified incubator at 37° C. with 5% CO2 atmosphere.
(§2) Cells were plated at a density of 2000 to 10000 cells per well, depending on their growth rate, in 0.09 mL medium on day 0 in 96-well Microlite TCT microtiter plates (7418, Thermo Labsystems, Franklin, Mass.). On day 1, 10 μL of serial dilutions of the individual compounds were added to the plates in replicates of 3. After incubation for 4 days at 37° C. in a humidified incubator, the cells were lysed in the Cell-Titer-Glo reagent, which also contains luciferase enzyme. The luciferase reaction utilizes ATP released from lysed cells to produce light, the intensity of which is linearly related to the amount of ATP. Thus, the amount of light produced is a reflection of the number of cells remaining in the well after drug treatment. This luminescence was measured using a Luminoskan luminometer (Thermo Electron Corp., Vantaa, Finland) Data were expressed as the percentage of survival of control cells calculated from the luminescence corrected for background. The surviving percent of cells was determined by dividing the mean luminescence values of the treated wells by the mean luminescence values of the control and multiplying by 100.
as §1, with “Briefly,” for “To evaluate cell killing of cancer cell lines, an in vitro cytotoxicity assay was performed. The”, “thyroid), PC-3 (prostate) and A549 (lung).” for “thyroid).”
as §1, with “carcinoma), PC-3 (prostate),” for “carcinoma)”, “A549 (lung).” for “TT (medullary thyroid).”
(§3) Cells were plated at a density of 2000 to 10000 cells per well, depending on their growth rate, in 0.09 mL medium on day 0 in 96-well Microlite TCT microtiter plates (#7418, Thermo Labsystems, Franklin, Mass.). On day 1, 10 μL of serial dilutions of the individual compounds were added to the plates in replicates of 3. After incubation for 4 days at 37° C. in a humidified incubator, the cells were lysed in the Cell-Titer-Glo reagent, which also contains luciferase enzyme. […]

MiaPaCa-2 (pancreas) = test: in vitro cytotoxicity assay (Cell-Titer-Glo), MiaPaCa-2; details: Homo sapiens, MIA PaCa-2, 96 h, 4 days
Procedure: as §1, §2
as §1, with “Briefly,” for “To evaluate cell killing of cancer cell lines, an in vitro cytotoxicity assay was performed. The”, “thyroid), PC-3 (prostate) and A549 (lung).” for “thyroid).”
as §1, with “carcinoma), PC-3 (prostate),” for “carcinoma)”, “A549 (lung).” for “TT (medullary thyroid).”
as §3

MCF-7 (breast) = test: in vitro cytotoxicity assay (Cell-Titer-Glo), MCF-7; details: Homo sapiens
Procedure: as §1, §2
as §1, with “Briefly,” for “To evaluate cell killing of cancer cell lines, an in vitro cytotoxicity assay was performed. The”, “thyroid), PC-3 (prostate) and A549 (lung).” for “thyroid).”
as §1, with “carcinoma), PC-3 (prostate),” for “carcinoma)”, “A549 (lung).” for “TT (medullary thyroid).”
as §3

HT-29 (colon) = test: in vitro cytotoxicity assay (Cell-Titer-Glo), HT-29; details: Homo sapiens
Procedure: as §1, §2
as §1, with “Briefly,” for “To evaluate cell killing of cancer cell lines, an in vitro cytotoxicity assay was performed. The”, “thyroid), PC-3 (prostate) and A549 (lung).” for “thyroid).”
as §1, with “carcinoma), PC-3 (prostate),” for “carcinoma)”, “A549 (lung).” for “TT (medullary thyroid).”
as §3

U2-OS (osteosarcoma) = test: in vitro cytotoxicity assay (Cell-Titer-Glo), U2-OS; details: Homo sapiens, U2OS
Procedure: as §1, §2
as §1, with “Briefly,” for “To evaluate cell killing of cancer cell lines, an in vitro cytotoxicity assay was performed. The”, “thyroid), PC-3 (prostate) and A549 (lung).” for “thyroid).”
as §1, with “carcinoma), PC-3 (prostate),” for “carcinoma)”, “A549 (lung).” for “TT (medullary thyroid).”
as §3

PC-3 (prostate) = test: in vitro cytotoxicity assay (Cell-Titer-Glo), PC-3
Procedure: as §1, with “Briefly,” for “To evaluate cell killing of cancer cell lines, an in vitro cytotoxicity assay was performed. The”, “thyroid), PC-3 (prostate) and A549 (lung).” for “thyroid).”
as §2
as §1, with “carcinoma), PC-3 (prostate),” for “carcinoma)”, “A549 (lung).” for “TT (medullary thyroid).”
as §2, with “(#7418,” for “(7418,”, “100. […]” for “100.”

A549 (lung) = test: in vitro cytotoxicity assay (Cell-Titer-Glo), A549; details: Homo sapiens
Procedure: as §1, with “Briefly,” for “To evaluate cell killing of cancer cell lines, an in vitro cytotoxicity assay was performed. The”, “thyroid), PC-3 (prostate) and A549 (lung).” for “thyroid).”
as §2
as §1, with “carcinoma), PC-3 (prostate),” for “carcinoma)”, “A549 (lung).” for “TT (medullary thyroid).”
as §2, with “(#7418,” for “(7418,”, “100. […]” for “100.”

[1] = PANC-1, 96 h, Table 9, 4 days, read-out: IC50 Panc-1
[2] = Table 9, read-out: IC50 MiaPaCa-2
[3] = MCF7, 96 h, Table 9, 4 days, read-out: IC50 MCF-7
[4] = HT-29, 96 h, Table 9, 4 days, read-out: IC50 HT-29
[5] = 96 h, Table 9, 4 days, read-out: IC50 U2-OS
[6] = 96 h, Table 9, 4 days, read-out: IC50 PC-3
[7] = A549, 96 h, Table 9, 4 days, read-out: IC50 A549
[8] = PANC-1, 96 h, Example 20, 4 days, read-out: Cell-based IC50 values Panc-1
[9] = Example 20, read-out: Cell-based IC50 values MiaPaCa-2
[10] = MCF7, 96 h, Example 20, 4 days, read-out: Cell-based IC50 values MCF-7
[11] = HT-29, 96 h, Example 20, 4 days, read-out: Cell-based IC50 values HT-29
[12] = 96 h, Example 20, 4 days, read-out: Cell-based IC50 values U2-Os
[13] = 96 h, Example 20, 4 days, read-out: Cell-based IC50 values PC-3
[14] = A549, 96 h, Example 20, 4 days, read-out: Cell-based IC50 values A549

Structure (SMILES)	IC50 (Panc-1 (pancreas); [8]) [µM]	IC50 (MiaPaCa-2 (pancreas); [9]) [µM]	IC50 (MCF-7 (breast); [10]) [µM]	IC50 (HT-29 (colon); [11]) [µM]	IC50 (U2-OS (osteosarcoma); [12]) [µM]	IC50 (PC-3 (prostate); [13]) [µM]	IC50 (A549 (lung); [14]) [µM]	also measured
Cc1ccc(NS(=O)(=O)c2ccc(NC(=S)N3CCN(c4ncnc5[nH]c6cc(Cl)c(N7CCOCC7)cc6c45)CC3)cc2)cc1 [Compound 2-9, 4-(7-chloro-6-morpholino-9H-pyrimido[4,5-b]indol-4-yl)-N-(4-(N-tolylsulfamoyl)phenyl)piperazine-1-carbothioamide]	–	–	–	–	–	–	–	IC50 (Panc-1 (pancreas); [1]): 85.2 µM; IC50 (MiaPaCa-2 (pancreas); [2]): 26.9 µM; IC50 (MCF-7 (breast); [3]): 8.21 µM; IC50 (HT-29 (colon); [4]): 8 µM; IC50 (U2-OS (osteosarcoma); [5]): 8.56 µM; IC50 (PC-3 (prostate); [6]): 8.25 µM; IC50 (A549 (lung); [7]): 19.4 µM
COc1cc2[nH]c3ncnc(N4CCN(C(=S)Nc5ccc(S(C)(=O)=O)cc5)CC4)c3c2cc1OC [Compound 1-115]	49.8	55.4	87.8	97.4	50.4	75.7	149	–
COc1cc2[nH]c3ncnc(N4CCN(C(=S)Nc5ccc(S(=O)(=O)Nc6ccc(F)cc6)cc5)CC4)c3c2cc1OC [Compound 2-3, 4-(6,7-dimethoxy-9H-pyrimido[4,5-b]indol-4-yl)-N-(4-(N-(4-fluorophenyl)sulfamoyl)phenyl)piperazine-1-carbothioamide]	–	–	–	–	–	–	–	IC50 (Panc-1 (pancreas); [1]): 22.3 µM; IC50 (MiaPaCa-2 (pancreas); [2]): 7.19 µM; IC50 (MCF-7 (breast); [3]): 8.43 µM; IC50 (HT-29 (colon); [4]): 6.42 µM; IC50 (U2-OS (osteosarcoma); [5]): 8.18 µM; IC50 (PC-3 (prostate); [6]): 8.78 µM; IC50 (A549 (lung); [7]): 23 µM
COc1cc2[nH]c3ncnc(N4CCN(C(=S)Nc5ccc(S(=O)(=O)NC(C)=O)cc5)CC4)c3c2cc1OC [Compound 1-2, 4-(6,7-Dimethoxy-9H-pyrimido[4,5-b]indol-4-yl)-piperazine-1-carbothioic acid (4-acetylsulfamoyl-phenyl)-amide]	198	173	126	93.6	71.7	164	194	–
CC(=O)NS(=O)(=O)c1ccc(NC(=S)N2CCN(c3ncnc4[nH]c5cc(C(F)(F)F)c(Cl)cc5c34)CC2)cc1 [Compound 1-1, 4-(6-Chloro-7-trifluoromethyl-9H-pyrimido[4,5-b]indol-4-yl)-piperazine-1-carbothioic acid (4-acetylsulfamoyl-phenyl)-amide]	37.5	18.6	14.6	5.01	13.2	52.3	53.8	IC50 (Panc-1 (pancreas); PANC-1, 96 h, Example 18, 4 days, read-out: calculated IC50 Panc-1): 40.7 µM; IC50 (Panc-1 (pancreas); PANC-1, Table 10, 96 hours, read-out: IC50 Panc1 (inhibit cell growth to 50% of untreated)): 40.7 µM; IC50 (MiaPaCa-2 (pancreas); Example 18, read-out: calculated IC50 MiaPaCa-2): 66.6 µM; IC50 (MCF-7 (breast); MCF7, 96 h, Example 18, 4 days, read-out: calculated IC50 MCF-7): 22.5 µM; IC50 (MCF-7 (breast); MCF7, Table 10, 96 hours, read-out: IC50 MCF-7 (inhibit cell growth to 50% of untreated)): 22.5 µM; IC50 (HT-29 (colon); HT-29, 96 h, Example 18, 4 days, read-out: calculated IC50 HT-29): 14.7 µM; IC50 (HT-29 (colon); HT-29, Table 10, 96 hours, read-out: IC50 HT-29 (inhibit cell growth to 50% of untreated)): 14.7 µM; IC50 (U2-OS (osteosarcoma); 96 h, Example 18, 4 days, read-out: calculated IC50 U2-OS): 25.9 µM; IC50 (U2-OS (osteosarcoma); Table 10, 96 hours, read-out: IC50 U2-Os (inhibit cell growth to 50% of untreated)): 25.9 µM; IC50 (PC-3 (prostate); Table 10, 96 hours, read-out: IC50 PC-3 (inhibit cell growth to 50% of untreated)): 28.4 µM; IC50 (A549 (lung); A549, Table 10, 96 hours, read-out: IC50 A549 (inhibit cell growth to 50% of untreated)): 19 µM
COc1cc2c(cc1O)[nH]c1ncnc(N3CCN(C(=S)Nc4ccc(S(=O)(=O)NC(C)=O)cc4)CC3)c12 [Compound 1-8]	–	–	83.1	27.3	–	–	–	–
COc1cc2[nH]c3ncnc(N4CCN(C(=S)Nc5ccc(S(=O)(=O)N6CCOCC6)cc5)CC4)c3c2cc1OC [Compound 1-26]	139	8.92	14.7	176	6.95	22.3	130	–
CC(=O)NS(=O)(=O)c1ccc(NC(=S)N2CCN(c3ncnc4[nH]c5ccc(Cl)cc5c34)CC2)cc1 [Compound 1-3, 4-(6-chloro-9H-pyrimido[4,5-b]indol-4-yl)-piperazine-1-carbothioic acid (4-acetylsulfamoyl-phenyl)-amide]	35.8	22.1	209	29.8	20.8	47.3	37	–
COc1cc2[nH]c3ncnc(N4CCN(C(=S)Nc5ccc(NC(C)=O)cc5)CC4)c3c2cc1OC [Compound 1-42]	216	182	4.62	140	41.3	189	160	–
CC(=O)NS(=O)(=O)c1ccc(NC(=S)N2CCN(c3ncnc4[nH]c5cc(F)ccc5c34)CC2)cc1 [Compound 1-4]	136	85.2	249	103	36.3	160	72.7	–
COc1ccc2c(c1)[nH]c1ncnc(N3CCN(C(=S)Nc4ccc(S(=O)(=O)Nc5ccc(F)cc5)cc4)CC3)c12 [Compound 2-5, 4-(7-methoxy-9H-pyrimido[4,5-b]indol-4-yl)-N-(4-(N-(4-fluorophenyl)sulfamoyl)phenyl)piperazine-1-carbothioamide]	–	–	–	–	–	–	–	IC50 (Panc-1 (pancreas); [1]): 10.7 µM; IC50 (MiaPaCa-2 (pancreas); [2]): 6.89 µM; IC50 (MCF-7 (breast); [3]): 8.11 µM; IC50 (HT-29 (colon); [4]): 6.93 µM; IC50 (U2-OS (osteosarcoma); [5]): 8.49 µM; IC50 (PC-3 (prostate); [6]): 7.68 µM; IC50 (A549 (lung); [7]): 6.73 µM
